Key:
Experiment in all cases: relative viability (nuclei count vs DMSO), 5 days (fraction); higher = more cells survive
[1] = compound: Cn1cc(-c2cnn3c(N)c(Br)c([C@@H]4CCCNC4)nc23)cn1 + CC(=O)Nc1cccc(-n2c(=O)n(C3CC3)c(=O)c3c(Nc4ccc(I)cc4F)n(C)c(=O)c(C)c32)c1 [Trametinib] (partner 0.02 µM)
Procedure, shortened: (§1)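 Lung cancer cell lines, seeded in 1536-well plates, were treated the following day by pin tool with a single drug or with five library-drug doses (not always all listed) in √10 steps on top of a fixed anchor-drug dose. Cells were fixed and nuclei stained in one step after 5 days, and nuclei were counted. Relative viability is the nuclei count for treated wells divided by that for vehicle wells, reported as medians of duplicate plates.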

[2] = compound: Cn1cc(-c2cnn3c(N)c(Br)c([C@@H]4CCCNC4)nc23)cn1 + CS(=O)(=O)CCNCc1ccc(-c2ccc3ncnc(Nc4ccc(OCc5cccc(F)c5)c(Cl)c4)c3c2)o1 [Lapatinib] (partner 2 µM)
Procedure, shortened: as §1

[3] = compound: Cn1cc(-c2cnn3c(N)c(Br)c([C@@H]4CCCNC4)nc23)cn1 + N=C(N)NC(=N)NCCc1ccccc1 [Phenformin] (partner 250 µM)
Procedure, shortened: as §1

[4] = compound: Cn1cc(-c2cnn3c(N)c(Br)c([C@@H]4CCCNC4)nc23)cn1 + O=C(c1cc(Cc2n[nH]c(=O)c3ccccc23)ccc1F)N1CCN(C(=O)C2CC2)CC1 [Olaparib] (partner 8 µM)
Procedure, shortened: as §1

| Cell Line | relative viability ([1]; first compound 0.05 µM) | relative viability ([1]; first compound 0.1581 µM) | relative viability ([1]; first compound 0.5 µM) | relative viability ([1]; first compound 1.581 µM) | relative viability ([1]; first compound 5 µM) | relative viability ([2]; first compound 0.05 µM) | relative viability ([2]; first compound 0.1581 µM) | relative viability ([2]; first compound 0.5 µM) | relative viability ([2]; first compound 1.581 µM) | relative viability ([2]; first compound 5 µM) | relative viability ([3]; first compound 0.05 µM) | relative viability ([3]; first compound 0.1581 µM) | relative viability ([3]; first compound 0.5 µM) | relative viability ([3]; first compound 1.581 µM) | relative viability ([3]; first compound 5 µM) | relative viability ([4]; first compound 0.05 µM) | relative viability ([4]; first compound 0.1581 µM) | relative viability ([4]; first compound 0.5 µM) | relative viability ([4]; first compound 1.581 µM) | relative viability ([4]; first compound 5 µM) |
| --- | --- | --- | --- | --- | --- | --- | --- | --- | --- | --- | --- | --- | --- | --- | --- | --- | --- | --- | --- | --- |
| LU99A | 0.464 | 0.572 | 0.599 | 0.492 | 0.518 | 1.04 | 1.11 | 0.998 | 0.858 | 0.611 | 0.749 | 0.789 | 0.766 | 0.802 | 0.582 | 0.244 | 0.235 | 0.236 | 0.221 | 0.163 |
| HCC-366 | 0.388 | 0.311 | 0.301 | 0.284 | 0.286 | 1.05 | 1.32 | 0.66 | 0.649 | 0.382 | 0.617 | 0.67 | 0.618 | 0.558 | 0.507 | 0.392 | 0.372 | 0.296 | 0.229 | 0.137 |
| EKVX | 0.445 | 0.317 | 0.413 | 0.377 | 0.409 | 0.204 | 0.215 | 0.192 | 0.193 | 0.184 | 0.223 | 0.254 | 0.257 | 0.245 | 0.194 | 0.761 | 0.958 | 0.872 | 0.767 | 0.707 |
| NCI-H522 | 0.852 | 0.754 | 0.699 | 0.802 | 0.579 |  |  |  |  |  | 0.69 | 0.625 | 0.642 | 0.669 | 0.664 | 0.674 | 0.749 | 0.68 | 0.523 | 0.633 |
| NCI-H1755 | 0.783 | 0.802 | 0.744 | 0.782 | 0.765 | 1.15 | 1.14 | 1.09 | 0.743 | 0.758 | 0.629 | 0.664 | 0.603 | 0.652 | 0.597 | 0.964 | 0.989 | 0.931 | 0.989 | 0.847 |
| NCI-H647 | 0.52 | 0.44 | 0.403 | 0.373 | 0.313 | 1.43 | 1.22 | 1.17 | 0.497 | 0.275 | 0.367 | 0.491 | 0.598 | 0.177 | 0.215 | 0.686 | 0.64 | 0.332 | 0.202 | 0.12 |
| LC-2-ad | 0.974 | 0.986 | 0.935 | 0.931 | 0.961 | 1.02 | 1.04 | 0.923 | 0.754 | 0.925 | 0.558 | 0.643 | 0.64 | 0.539 | 0.529 | 0.753 | 0.686 | 0.648 | 0.727 | 0.726 |
| NCI-H1793 | 0.451 | 0.36 | 0.367 | 0.481 | 0.458 | 0.709 | 0.926 | 0.689 | 0.753 | 0.259 | 0.322 | 0.465 | 0.435 | 0.328 | 0.252 | 1.02 | 1.08 | 0.921 | 0.718 | 0.472 |

From the supplement of paper PMC10307832
